Where two headings read alike, the source gives them in different places.
Tests used:
[1] = tested on: SW480; experiment: Drug combination screen (ATPlite, Synergy Score), SW480; format: cell-based, human
[2] = tested on: HCT 116; experiment: Drug combination screen (ATPlite, Synergy Score), HCT 116
[3] = tested on: DLD-1; experiment: Drug combination screen (ATPlite, Synergy Score), DLD-1
[4] = tested on: LS-411N; experiment: Drug combination screen (ATPlite, Synergy Score), LS-411N; format: cell-based, human
[5] = tested on: SNU-C2B; experiment: Drug combination screen (ATPlite, Synergy Score), SNU-C2B
[6] = compound in combination with IgG1-hDR5-01-G56T-E430G + IgG1-hDR5-05-E430G, SW480, 72 hour ATPlite, 6x6 matrix
[7] = compound in combination with IgG1-hDR5-01-G56T-E430G + IgG1-hDR5-05-E430G, HCT 116, 120 hour ATPlite, 6x6 matrix
[8] = compound in combination with IgG1-hDR5-01-G56T-E430G + IgG1-hDR5-05-E430G, DLD-1, 120 hour ATPlite, 6x6 matrix
[9] = compound in combination with IgG1-hDR5-01-G56T-E430G + IgG1-hDR5-05-E430G, LS-411N, 72 hour ATPlite, 6x6 matrix
[10] = compound in combination with IgG1-hDR5-01-G56T-E430G + IgG1-hDR5-05-E430G, SNU-C2B, 72 hour ATPlite, 6x6 matrix

Row | Compound | Synergy Score SW480 [1, 6] | Synergy Score HCT-116 [2, 7] | Synergy Score DLD-1 [3, 8] | Synergy Score LS-411N [4, 9] | Synergy Score SNU-C2B [5, 10] | Synergy Score SW480 [1] | Synergy Score HCT-116 [2] | Synergy Score DLD-1 [3] | Synergy Score LS-411N [4] | Synergy Score SNU-C2B [5]
1 | O=C(CCCCCCC(=O)Nc1ccccc1)NO | 7.3 | 2.5 | 4.4 | 4.4 | 11 |  |  |  |  | 
2 | O=C1NC(=O)/C(=C/c2ccc3nccc(-c4ccncc4)c3c2)S1 [GSK1059615] | 1.7 | 0.6 | 0.4 | 0.4 | 0.8 |  |  |  |  | 
3 | CC(=O)Nc1cccc(-n2c(=O)n(C3CC3)c(=O)c3c(Nc4ccc(I)cc4F)n(C)c(=O)c(C)c32)c1 [Trametinib] | 7.2 | 4 | 4.1 | 0.9 | 0.6 |  |  |  |  | 
4 | Nc1cccc2c1CN(C1CCC(=O)NC1=O)C2=O (stereo not shown) [Lenalidomide] | 0 | 0 | 0 | 0.1 | 0.2 |  |  |  |  | 
5 | Cn1c(=O)n(-c2ccc(C(C)(C)C#N)cc2)c2c3cc(-c4cnc5ccccc5c4)ccc3ncc21 [BEZ235] | 3.2 | 1.4 | 2.4 | 1.1 | 5.4 |  |  |  |  | 
6 | IC-87114 | 0 | 0.1 | 0 | 0.2 | 0.1 |  |  |  |  | 
7 | COc1cc(C(=O)O)ccc1NC(=O)[C@@H]1N[C@@H](CC(C)(C)C)[C@](C#N)(c2ccc(Cl)cc2F)[C@H]1c1cccc(Cl)c1F [Idasanutlin] | 6.1 | 3.2 | 6.3 | 16.3 | 10.4 |  |  |  |  | 
8 | CC(=O)Nc1nc(C)c(-c2ccc(Cl)c(S(=O)(=O)NCCO)c2)s1 [PIK-93] |  |  |  |  |  | 4.1 | 1.2 | 1 | 5.2 | 5.1
9 | Cn1cnc2c(F)c(Nc3ccc(Br)cc3Cl)c(C(=O)NOCCO)cc21 [AZD6244] | 11.7 | 2.7 | 1.5 | 0.7 | 0.6 |  |  |  |  | 
10 | CCCS(=O)(=O)Nc1ccc(F)c(C(=O)c2c[nH]c3ncc(-c4ccc(Cl)cc4)cc23)c1F [PLX-4032] | 1 | 0.1 | 0.6 | 0.6 | 0.5 |  |  |  |  | 
11 | CC(=O)O[C@@]12CO[C@@H]1C[C@H](O)[C@@]1(C)C(=O)[C@H](O)C3=C(C)[C@@H](OC(=O)[C@H](O)[C@@H](NC(=O)OC(C)(C)C)c4ccccc4)C[C@@](O)([C@@H](OC(=O)c4ccccc4)[C@H]21)C3(C)C [docetaxel] | 19.5 | 7.9 | 17.6 | 36.2 | 15.8 |  |  |  |  | 
12 | COCCNCc1ccc(-c2cc3nccc(Oc4ccc(NC(=S)NC(=O)Cc5ccc(F)cc5)cc4F)c3s2)nc1 [MGCD-265] | 0.5 | 0.1 | 0.2 | 0.7 | 3.1 |  |  |  |  | 
13 | TW-37 | 10.5 | 5.4 |  | 29.9 |  |  |  |  |  | 
14 | O=C1NC(=O)C(c2ccccc2[N+](=O)[O-])=C1Nc1ccc(O)c(Cl)c1 [SB 415286] | 3.8 | 0.8 | 0.4 | 2.1 | 0.7 |  |  |  |  | 
15 | CO[C@H]1C[C@@H]2CC[C@@H](C)[C@@](O)(O2)C(=O)C(=O)N2CCCC[C@H]2C(=O)O[C@H]([C@H](C)C[C@@H]2CC[C@@H](OCCO)[C@H](OC)C2)CC(=O)[C@H](C)/C=C(\C)[C@@H](O)[C@@H](OC)C(=O)[C@H](C)C[C@H](C)/C=C/C=C/C=C/1C [Everolimus] | 1.6 | 0.4 | 0.4 | 0.3 | 3.2 |  |  |  |  | 
16 | Cn1c(Nc2ccc(C(F)(F)F)cc2)nc2cc(Oc3ccnc(-c4ncc(C(F)(F)F)[nH]4)c3)ccc21 [RAF265] | 4.5 | 2.5 | 5.6 | 10.5 | 3.7 |  |  |  |  | 
17 | Cn1c2ccccc2c2c3c(c4c5ccccc5n(CCC#N)c4c21)CNC3=O [Go 6976] | 3.1 | 0.9 | 2.9 | 1.9 | 1.7 |  |  |  |  | 
18 | CCc1cc(Nc2nccc(-c3c(-c4ccc(OC)c(C(=O)Nc5c(F)cccc5F)c4)nc4ccccn34)n2)c(OC)cc1N1CCC(N2CCN(S(C)(=O)=O)CC2)CC1 [GSK1904529A] | 2.2 | 0.2 | 1.4 | 6 | 2.7 |  |  |  |  | 
19 | Cn1cc(C2=C(c3ccc(Cl)cc3Cl)C(=O)NC2=O)c2ccccc21 [SB-216763] | 1.4 | 0.1 | 0.5 | 1.1 | 0.3 |  |  |  |  | 
20 | CCN1CCN(c2ccc(Nc3cc(N(C)C(=O)Nc4c(Cl)c(OC)cc(OC)c4Cl)ncn3)cc2)CC1 [BGJ398] | 1.6 | 0.1 | 1 | 1.4 | 0.8 |  |  |  |  | 
21 | C[C@@H](Oc1cc(-c2cnn(C3CCNCC3)c2)cnc1N)c1c(Cl)ccc(F)c1Cl [Crizotinib] | 8.9 | 7.7 | 13.4 |  | 5.4 |  |  |  |  | 
22 | COc1cc2nccc(Oc3ccc(NC(=O)C4(C(=O)Nc5ccc(F)cc5)CC4)cc3)c2cc1OC [XL184] | 6 | 1 | 4.1 | 5.8 | 1.5 |  |  |  |  | 
23 | C[C@@H]1CCN(C(=O)CC#N)C[C@@H]1N(C)c1ncnc2[nH]ccc12 [CP-690550] | 0 | 0 | 0.1 | 0.6 | 0.1 |  |  |  |  | 
24 | COc1ccc(-c2ccc3c(N4CCOC[C@@H]4C)nc(N4CCOC[C@@H]4C)nc3n2)cc1CO [AZD 8055] | 3.9 | 1.7 | 3 | 10 | 12.2 |  |  |  |  | 
25 | Oc1c2ccccc2c2c3c(cccc13)N=N2 [SP 600125] | 0.9 | 0.6 | 3.3 | 0.5 | 2 |  |  |  |  | 
26 | CC[C@H](NC(=O)[C@H](C)NC)C(=O)N1C[C@@H](O)C[C@H]1Cc1c(-c2[nH]c3cc(F)ccc3c2C[C@@H]2C[C@H](O)CN2C(=O)[C@H](CC)NC(=O)[C@H](C)NC)[nH]c2cc(F)ccc12 [Birinapant, reference compound] | 54.5 | 16.4 | 5.8 | 61.2 | 37 |  |  |  |  | 
27 | C[C@]1(c2nc3c(C(N)=O)cccc3[nH]2)CCCN1 [ABT-888] | 0 |  |  | 0.7 | 0.1 |  |  |  |  | 

Reference: patent publication US20200247897A1, “THERAPEUTIC ANTIBODIES BASED ON MUTATED IGG HEXAMERS” (GENMAB B.V., priority 2017, published 2020)
